Test results as given in patent US11274332B2, “Methods of administering 3,4-diaminopyridine” (SERB SA, priority 2011, dated 2022).

Columns and labels:
[1] = target: T1, cloned human Kv1.1 potassium channel (Homo sapiens, UniProt Q09470); assay: PatchXpress inhibition of cloned human Kv1.1 in HEK293 cells (Example 6); type: cell-based; settings: hKv1.1, up to 3000 μM
T1 construct: expressed in transfected cells
Description: (§1) The objective of this study was to examine the in vitro effects and determine the […] of 3,4-DAP phosphate and the metabolite N-(4-aminopyridin-3-yl) acetamide HCl on the following ion channels: cloned human Kv1.1 potassium channel (encoded by the human KCNA1 gene, expressed in HEK293 cells), cloned human Kv1.2 potassium channel (encoded by the human KCNA2 gene, expressed in HEK293 cells), cloned human Kv1.3 potassium channel (encoded by the human KCNA3 gene, expressed in CHO cells), cloned human Kv1.4 potassium channel (encoded by the human KCNA4 gene, expressed in HEK293 cells), cloned human Kv1.5 potassium channel (encoded by the human KCNA5 gene and expressed in CHO cells), responsible for IKur, ultra-rapid delayed rectifier potassium current.
(§2) Chemicals used in solution preparation were purchased from Sigma-Aldrich (St. Louis, Mo.), unless otherwise noted, and were of ACS reagent grade purity or higher. Stock solutions of each test article (100 mM, 30 mM and 1.00 mM 3,4-DAP phosphate and 100 mM N-(4-aminopyridin-3-yl)acetamide) were prepared in sterile water and stored refrigerated. […]
(§3) In preparation for a recording session, intracellular solution was loaded into the intracellular compartments of the Sealchip16. […] After establishment of a whole-cell configuration, membrane currents were recorded using dual-channel patch clamp amplifiers in the PatchXpress®. […]

[2] = target: T2, cloned human Kv1.5 potassium channel (Homo sapiens, UniProt P22460); assay: PatchXpress inhibition of cloned human Kv1.5 in CHO cells (Example 6); type: cell-based; settings: hKv1.5, up to 3000 μM
T2 construct: expressed in transfected cells
T2 sequence (P22460 whole entry): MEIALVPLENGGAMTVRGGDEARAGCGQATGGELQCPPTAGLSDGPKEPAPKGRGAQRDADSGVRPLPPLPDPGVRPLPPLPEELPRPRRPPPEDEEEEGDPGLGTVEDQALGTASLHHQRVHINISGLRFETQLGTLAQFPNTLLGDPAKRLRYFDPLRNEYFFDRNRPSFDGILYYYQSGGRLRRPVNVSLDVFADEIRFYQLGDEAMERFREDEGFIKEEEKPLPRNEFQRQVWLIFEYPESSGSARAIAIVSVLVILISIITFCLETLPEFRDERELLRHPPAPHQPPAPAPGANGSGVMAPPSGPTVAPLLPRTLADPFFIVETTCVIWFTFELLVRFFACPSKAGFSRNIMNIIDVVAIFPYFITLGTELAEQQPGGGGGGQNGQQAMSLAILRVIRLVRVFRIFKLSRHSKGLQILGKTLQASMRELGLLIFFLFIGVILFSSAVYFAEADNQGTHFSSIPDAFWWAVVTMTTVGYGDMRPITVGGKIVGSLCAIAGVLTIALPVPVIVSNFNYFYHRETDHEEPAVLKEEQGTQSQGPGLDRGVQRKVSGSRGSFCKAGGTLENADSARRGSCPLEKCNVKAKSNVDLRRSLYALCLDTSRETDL
Description: as §1, §2, §3

T1 sequence (Q09470 whole entry): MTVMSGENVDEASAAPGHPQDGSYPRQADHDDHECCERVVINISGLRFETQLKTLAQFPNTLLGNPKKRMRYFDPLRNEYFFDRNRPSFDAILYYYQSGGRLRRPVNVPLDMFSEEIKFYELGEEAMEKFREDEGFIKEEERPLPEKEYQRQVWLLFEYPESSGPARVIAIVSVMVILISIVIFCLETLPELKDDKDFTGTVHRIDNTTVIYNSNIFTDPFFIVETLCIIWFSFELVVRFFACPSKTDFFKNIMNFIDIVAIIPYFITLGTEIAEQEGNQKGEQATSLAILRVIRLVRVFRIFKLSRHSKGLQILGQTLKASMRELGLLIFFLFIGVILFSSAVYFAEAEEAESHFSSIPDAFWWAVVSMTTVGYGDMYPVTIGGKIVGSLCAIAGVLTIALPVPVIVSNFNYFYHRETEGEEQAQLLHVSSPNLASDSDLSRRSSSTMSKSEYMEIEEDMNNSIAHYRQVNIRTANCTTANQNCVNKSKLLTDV

SMILES: CC(=O)Nc1cnccc1N [3-N-acetyl amifampridine, N-(4-aminopyridin-3-yl)acetamide]
- activity on K+ channel [1]: inactive
- activity on K+ channel ([1]; listed as N-acetyl metabolite): not active
- activity on K+ channel [2]: inactive
- activity on K+ channel ([2]; listed as N-acetyl metabolite): not active
